Measured values reported in US7144903B2, “CCR4 antagonists” (Amgen Inc., priority 2001, dated 2006).

Target: T1, CCR4 (Homo sapiens, UniProt P51679)
T1 construct: cells expressing CCR4 (e.g., CEM cells, available from the ATCC); host or cells: CEM cells
T1 sequence (P51679 1-360): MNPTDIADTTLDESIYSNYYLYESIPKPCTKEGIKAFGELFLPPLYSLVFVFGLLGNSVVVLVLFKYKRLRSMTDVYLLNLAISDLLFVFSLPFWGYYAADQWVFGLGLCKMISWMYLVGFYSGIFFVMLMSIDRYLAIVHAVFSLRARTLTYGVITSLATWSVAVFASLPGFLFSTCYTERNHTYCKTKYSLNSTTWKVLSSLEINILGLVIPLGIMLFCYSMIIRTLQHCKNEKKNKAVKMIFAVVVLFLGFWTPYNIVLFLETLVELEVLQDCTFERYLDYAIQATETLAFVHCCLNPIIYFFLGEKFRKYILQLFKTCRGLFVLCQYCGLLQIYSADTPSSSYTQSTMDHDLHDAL
Test: CCR4 binding assay: inhibition of 125I-TARC binding to cells expressing CCR4 (e.g., CEM cells)
Conditions: not given
Text: This example illustrates a CCR4 binding assay that can be used for evaluating the compounds of the present invention.
Detection of Radiolabelled TARC and/or MDC Binding to CCR4
^125I-labelled TARC and MDC are available from commercial sources (e.g., Amersham-Pharmacia or Perkin Elmer Life Sciences). All buffers and materials are available from commercial sources (e.g., Gibco BRL, Sigma). To measure binding of ^125I-TARC or ^125I-MDC to cells expressing CCR4 (e.g., CEM cells, available from the ATCC), the ^125I-TARC or ^125I-MDC is diluted to a concentration of approximately 200 pM in a buffered saline solution (e.g., RPMI supplemented with 0.5% bovine serum albumin), and added to an equal volume of a suspension of cells (e.g., CEM cells at 5×10^6 cells/mL). The resulting mixture is incubated for a period of time (e.g., 2 hours). The unbound ^125I-TARC or ^125I-MDC is separated from the cells by filtration, e.g., by passage through GF/B filter plate (Packard Biosciences) pre-treated with 0.3% polyethyleneimine (Sigma), using a Packard Filtermate 96 (Packard Biosciences). The amount of ^125I-TARC or ^125I-MDC retained with the cells on the filterplate is measured by adding a small amount of scintillation fluid (e.g., 50 μL of Microscint-20, obtained from Packard Biosciences), and reading scintillation on appropriate detection equipment, e.g., a Packard TopCount 383 (Packard Biosciences).
Non-specific binding of ^125I-TARC or ^125I-MDC can be estimated by measuring the amount of ^125I-TARC or ^125I-MDC retained with the cells on the filterplate when the assay is performed in the presence of a large excess of unlabelled TARC or MDC.
Inhibition of ^125I-TARC or ^125I-MDC binding to CCR4 is defined as a decrease in the retention of ^125I-TARC or ^125I-MDC to the cells on the filterplate.
The assay described above varies only moderately from standardly used procedures, e.g., Imai et al. (1997) J. Biol. Chem. 272:15036–15042, Imai et al. (1998) J. Biol. Chem. 273:1764–1768.

SMILES	IC50 [µM]
Clc1ccc2nc(Nc3cccc4ccccc34)sc2c1 [Compound 18]	> 1

Same assay, conditions: CCR4 antagonist activity, inhibition of 125I-TARC binding; read-out: IC50

SMILES	IC50 [µM]
FC(F)(F)c1ccccc1CN(Cc1csc(Nc2cccc3ncccc23)n1)CC1CCCCC1 [Compound 35]	< 1
CC(=O)c1csc(Nc2cccc3ccccc23)n1 [Compound 15, 4-Acetoyl-2-naphthylamino thiazole]	> 1
Cc1cccc(Nc2nc(CN(CC(C)C)CC(C)C)co2)c1C [Compound 45, {4-[(Diisobutylamino)-methyl]-oxazol-2-yl}-(2,3-dimethyl-phenyl)-amine]	< 1
c1ccc(CN2CCc3sc(Nc4cccc5ccccc45)nc3C2)cc1 [Compound 19]	< 1
CC(C)(C)c1csc(Nc2cccnc2CCCC2CCCC2)n1 [Compound 20, (4-tert-Butyl-thiazol-2-yl)-[2-(3-cyclopentyl-propyl)-pyridin-3-yl]-amine]	> 1
Cn1ccc2c(Nc3nc(CN(Cc4ccccc4OC(F)(F)F)CC4CCCCC4)cs3)cccc21 [Compound 24, (4-{[Cyclohexylmethyl-(2-trifluoromethoxy-benzyl)-amino]-methyl}-thiazol-2-yl)-(1-methyl-1H-indol-4-yl)-amine]	< 1
CCCc1sc(Nc2cccc3ccccc23)nc1C(C)(C)C [Compound 9]	> 1
CC(C)c1csc(Nc2cccc3ccccc23)n1 [Compound 12]	> 1

Second part, the compound after the results:

IC50 [µM]	SMILES
< 1	Cn1ccc2c(Nc3nc(C(C)(C)C)cs3)cccc21 [Compound 21, (4-tert-Butyl-thiazol-2-yl)-(1-methyl-1H-indol-4-yl)-amine]
< 1	CC(C)(C)c1csc(Nc2cccc3ncccc23)n1 [Compound 7]
> 1	CC(C)(C)c1csc(Nc2cccc3ccccc23)n1 [Compound 11]
< 1	CC(C)(C)c1csc(Nc2ccccc2N2CCOCC2)n1 [Compound 1]
> 1	CC(C)(C)Cc1csc(Nc2cccc3ccccc23)n1 [Compound 8]
> 1	Cc1cccc(Nc2nc(C(C)(C)C)cs2)c1C [Compound 2]
> 1	CCOC(=O)CC(C)(C)c1csc(Nc2cccc3ccccc23)n1 [Compound 13]
> 1	Cc1c(Br)cccc1Nc1nc(C(C)(C)C)cs1 [Compound 6]
> 1	Cc1sc(Nc2cccc3ccccc23)nc1C(C)(C)C [Compound 10]
< 1	CC(C)(C)c1csc(Nc2ccc(Cl)c3ccccc23)n1 [Compound 4]
> 1	CC(C)(C)c1csc(Nc2cccc3c2CCCC3)n1 [Compound 5]
< 1	CC(C)(C)c1csc(NCc2ccccc2)n1 [Compound 3]
< 1	CC(C)CCCc1ccccc1Nc1nc(C(C)(C)C)cs1 [Compound 49]
